SMILES strings stand for the structures.

One data set has as its target T1, human MAO A (Homo sapiens, UniProt P21397).
T1 construct: purchased Sigma Aldrich M7316
T1 sequence (P21397 1-527): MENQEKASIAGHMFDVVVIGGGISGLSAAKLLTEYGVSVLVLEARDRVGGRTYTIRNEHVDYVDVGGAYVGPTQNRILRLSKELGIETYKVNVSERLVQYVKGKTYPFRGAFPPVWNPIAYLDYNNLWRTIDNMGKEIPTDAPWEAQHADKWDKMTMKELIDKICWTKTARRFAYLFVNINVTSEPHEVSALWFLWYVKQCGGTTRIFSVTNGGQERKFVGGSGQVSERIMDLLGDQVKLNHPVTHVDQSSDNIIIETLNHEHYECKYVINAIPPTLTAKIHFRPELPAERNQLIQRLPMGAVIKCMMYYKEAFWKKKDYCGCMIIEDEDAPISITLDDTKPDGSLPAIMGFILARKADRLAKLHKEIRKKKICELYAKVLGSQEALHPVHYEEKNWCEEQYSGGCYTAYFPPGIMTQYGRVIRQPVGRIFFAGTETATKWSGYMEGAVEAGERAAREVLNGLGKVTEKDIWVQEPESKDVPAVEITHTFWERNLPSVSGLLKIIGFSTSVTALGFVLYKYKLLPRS
The data set can be described thus: hMAO A inhibition, fluorometric Amplex Red MAO assay. It is filed as biochemical. Particulars: mean ± SEM; p-tyramine 200 μM. As for the experimental part:
Inhibitory potency of compounds on MAO isoenzymes were carried out by a fluorometric method with a commercial Amplex™ Red Monoamine Oxidase Assay Kit (ThermoFisher Scientific A12214, Waltham, MA, USA) as described previously. For all tests, recombinant human MAO B and MAO A (from Sigma AldrichM7441 and M7316, Darmstadt, Germany) were used. Inhibitors’ activity was measured in the presence of p-tyramine (200 μM).
[…] […] All calculations were made in Microsoft Excel and GraphPadPrism software. All experiments were performed in duplicate, and data are expressed as mean ± SEM of 2–5 independent experiments.

The target in the next data set is T2, hMAO B (Homo sapiens, UniProt P27338).
T2 construct: purchased Sigma Aldrich M7441
T2 sequence (P27338 1-520): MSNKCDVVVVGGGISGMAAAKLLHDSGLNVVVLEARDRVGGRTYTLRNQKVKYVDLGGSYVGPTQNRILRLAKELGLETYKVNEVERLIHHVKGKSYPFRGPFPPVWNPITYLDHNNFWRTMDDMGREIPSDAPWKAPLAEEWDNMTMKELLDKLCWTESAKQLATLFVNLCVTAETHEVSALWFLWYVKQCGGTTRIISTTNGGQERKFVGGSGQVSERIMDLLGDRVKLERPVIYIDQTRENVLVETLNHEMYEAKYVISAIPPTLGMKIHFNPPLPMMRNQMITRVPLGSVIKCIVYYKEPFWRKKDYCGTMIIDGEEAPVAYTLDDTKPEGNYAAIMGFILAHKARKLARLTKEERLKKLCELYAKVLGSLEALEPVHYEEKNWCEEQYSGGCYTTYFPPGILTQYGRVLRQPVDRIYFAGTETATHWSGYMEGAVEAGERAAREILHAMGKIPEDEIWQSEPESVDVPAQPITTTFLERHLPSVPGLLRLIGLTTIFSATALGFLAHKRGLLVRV
As to the kind of experiment: hMAO B reversibility studies. The data set is classed as biochemical. Particulars: inhibitor at IC80; without preincubation; compared with safinamide and rasagiline. As for the experimental part:
Reversibility of MAO B inhibitors was tested as described previously with slight modification. Two experiments were performed simultaneously. In the first experiment, inhibitors (in concentrations corresponding to their IC80 values) were incubated with the enzyme and p-tyramine (10 μM) for 22 min (measuring fluorescence every two minutes).

The test system of data set [1] is neuroblastoma SH-SY5Y cells. As to the kind of experiment: neuroprotection in H2O2-treated SH-SY5Y cells (MTS). Particulars: H2O2 300 µM, 24 h. The data set is classed as cell-based. Here is the method:
(§1) The used reference cytostatic drug doxorubicin (DX) decreased cell viability <50% under the same conditions at very low concentrations of 0.2 and 0.05 µM. […] Oxidative damage was induced by very high toxic levels of hydrogen peroxide (H2O2; 300 µM), the popular cell model for PD research, in neuroblastoma SH-SY5Y cell line. […] Salsolinol (SAL) was used at a concentration of 50 µM as the reference compound with the proven neuroprotection activity.
(§2) SH-SY5Y cells were seeded in microplate at a concentration of 2.5 × 10^4 cells/well in 100 μL culture medium and cultured for 24 h at 37 C and 5% CO2 to reach 70% confluence. […] (R,S)-salsolinol (purity ≥ 99%) was obtained from Cayman Chemical (Ann Arbor, MI, USA). Next, H2O2 was added at final concentration 300 μM and the cells were placed into the incubator. After 24 h of compounds co-incubation with H2O2, the CellTiter 96®AQueous Non-Radioactive Cell Proliferation Assay (MTS) labeling mixture was added to each well, and the microplates were incubated under the same conditions for 5 h. The absorbance was measured using a microplate reader EnSpire (PerkinElmer, Waltham, MA USA) at 490 nm. All measurements were performed in triplicate, and results are shown as mean ± SD.

The test system of data set [2] is neuroblastoma SH-SY5Y cells. The data set can be described thus: toxicity against SH-SY5Y cells. It is filed as cell-based. Particulars: 10 and 50 µM. As for the experimental part: as §1, §2

Usually IC50 stands for the concentration at which inhibition is half-maximal. Regarding `CC(C)(C)c1ccc(OCCCN2CCCCC2)cc1` [DL76, 1-(3-(4-tert-butylphenoxy)propyl)piperidine], the IC50 against human MAO A is more than 10 µM. On hMAO B, the “type of hMAO B inhibition (reversible or irreversible)” value was “reversible”. Also, the “cell survival of H2O2-damaged SH-SY5Y cells (neuroprotection)” value in data set [1] (10 µM) and in data set [1] (50 µM) was “no increase of cell survival” each time. Besides, in data set [2], the “toxic effect against SH-SY5Y cells” value is “no toxic effect”.

The values above are taken from paper PMC7279487, “Dual Target Ligands with 4-tert-Butylphenoxy Scaffold as Histamine H3 Receptor Antagonists and Monoamine Oxidase B Inhibitors” (International Journal of Molecular Sciences, 2020).
